Source: US11584775B2, “C4-modified oleanolic acid derivatives for inhibition of IL-17 and other uses” (REATA PHARMACEUTICALS, INC., priority 2015, dated 2023)

How the values were obtained:
hIL17 = test: IL-17 release from differentiated primary human T-cells (IL-17A HTRF assay); assay type: cell-based; settings: inhibition of IL-17A levels; primary human CD4+ T cells differentiated into Th17 cells, 46-hour incubation
Method in brief: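 Cryopreserved primary human CD4+ T cells were activated with anti-CD3/CD28 beads and driven to Th17 with TGF-β, IL-6, IL-23 and IL-1β in the presence of compound (2-500 nM or 4-1000 nM) for 46 h at 37° C. Supernatant IL-17A was quantified by HTRF against a standard curve and normalized to DMSO. IC50s came from variable-slope fits, with viability read by CyQuant.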

[1] = test system: IFNγ-induced Nitric Oxide production; test: Nitric oxide production assay in RAW 264.7 mouse macrophages; assay type: cell-based; settings: RAW264.7, suppression of IFNγ-induced NO production normalized to cell viability (WST-1), RAW 264.7, 24 hours IFNγ
Method in brief: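 Cells pre-treated 2 h with compound (0.4-200 nM or 2-1000 nM) in RPMI 1640 + 0.5% FBS, then stimulated with recombinant mouse IFNγ for 24 h at 37 °C. Nitrite measured by Griess reagent, viability by WST-1; IC50 from NO suppression normalized to viability and to DMSO/IFNγ controls.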

NRF2 = test: AREc32 luciferase reporter assay; assay type: cell-based, human; settings: EC2×: concentration required to increase GST ARE Luciferase reporter activity by 2-fold; AREc32 cells, 19 hours
Method in brief: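 AREc32 cells (MCF-7 stably carrying eight rat GSTA2 ARE copies driving firefly luciferase) treated 19 h with compound (0.4–200 nM or 2–1000 nM), triplicate. Luminescence normalized to DMSO as fold-induction; variable-slope fit capped at 50-fold; EC2× = concentration giving 2-fold induction.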

human RORγ = target: T1, human RORγ (Homo sapiens, UniProt P51449); test: RORγ assay (GAL4-RORγ hybrid luciferase reporter, inverse-agonist activity); assay type: cell-based; settings: GAL4-RORγ hybrid reporter cells, 23 hours
T1 sequence (P51449 269-508 limits assumed): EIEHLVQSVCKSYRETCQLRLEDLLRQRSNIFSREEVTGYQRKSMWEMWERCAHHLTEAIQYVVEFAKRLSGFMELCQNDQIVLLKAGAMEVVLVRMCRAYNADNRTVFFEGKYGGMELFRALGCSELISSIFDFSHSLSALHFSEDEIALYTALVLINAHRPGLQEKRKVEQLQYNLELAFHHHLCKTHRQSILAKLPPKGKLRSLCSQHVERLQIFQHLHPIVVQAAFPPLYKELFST
Method in brief: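 Human cell line expressing GAL4-DBD/RORγ hybrid with UAS-driven luciferase, treated in triplicate with compound (0.4–200 nM or 2–1000 nM) for 23 h at 37 °C. Luminescence normalized to DMSO; viability measured in parallel by multiplex assay. IC50 for RORγ and viability by variable-slope nonlinear regression.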

Structure (SMILES) | IC50 (hIL17) [nM] | IC50 [1] [nM] | EC2x: concentration giving 2-fold induction of ARE luciferase reporter (NRF2) [nM] | IC50 (human RORγ) [nM]
COC(=O)N[C@]12CCC(C)(C)C[C@H]1[C@H]1C(=O)C=C3[C@@]4(C)C=C(C#N)C(=O)[C@@](C)(COC(C)=O)[C@@H]4CC[C@@]3(C)[C@]1(C)CC2 [Compound T41, ((4R,4aR,6aS,6bR,8aS,12aS,12bR,14bS)-2-cyano-8a-((methoxycarbonyl)amino)-4,6a,6b, 11,11,11,14b-hexamethyl-3,13-dioxo-3,4,4a,5,6,6a,6b,7,8,8a,9,10,11,12,12a,12b,13,14b-octadecahydropicen-4-yl)methyl acetate] | 35 | 151 | 330 | 135
CCNC(=O)[C@]12CCC(C)(C)C[C@H]1[C@H]1C(=O)C=C3[C@@]4(C)C=C(C#N)C(=O)[C@@](C)(O)[C@@H]4CC[C@@]3(C)[C@]1(C)CC2 [Compound T26, (4aS,6aR,6bS,8aR,9S,12aS,14aR,14bS)-11-cyano-N-ethyl-9-hydroxy-2,2,6a,6b,9,12a-hexamethyl-10,14-dioxo-1,3,4,5,6,6a,6b,7,8,8a,9,10,12a,14,14a,14b-hexadecahydropicene-4a(2H)-carboxamide] | 132 | 370 | 463 | 292
COC(=O)[C@]12CCC(C)(C)C[C@H]1[C@H]1C(=O)C=C3[C@@]4(C)C=C(C#N)C(=O)[C@@](C)(c5nnc(C)o5)[C@@H]4CC[C@@]3(C)[C@]1(C)CC2 [Compound T16, methyl (4aS,6aR,6bS,8aR,9R,12aS,14aR,14bS)-11-cyano-2,2,6a,6b,9,12a-hexamethyl-9-(5-methyl-1,3,4-oxadiazol-2-yl)-10,14-dioxo-1,3,4,5,6,6a,6b,7,8,8a,9,10,12a,14,14a,14b-hexadecahydropicene-4a(2H)-carboxylate] | 92 | 615 | >1000 | 406
COC(=O)[C@]12CCC(C)(C)C[C@H]1[C@H]1C(=O)C=C3[C@@]4(C)C=C(C#N)C(=O)[C@](C)(C(=O)OC)[C@@H]4CC[C@@]3(C)[C@]1(C)CC2 [Compound T3, dimethyl (4R,4aR,6aS,6bR,8aS,12aS,12bR,14bS)-2-cyano-4,6a,6b, 11,11,14b-hexamethyl-3,13-dioxo-4,4a,5,6,6a,6b,7,8,9,10,11,12,12a,12b,13,14b-hexadecahydropicene-4,8a(3H)-dicarboxylate] | 18 | 22.3 | 48 | 169
CC(=O)OC[C@]1(C)C(=O)C(C#N)=C[C@]2(C)C3=CC(=O)[C@@H]4[C@@H]5CC(C)(C)CC[C@]5(c5nc(C)no5)CC[C@@]4(C)[C@]3(C)CC[C@H]21 [Compound T46, ((4R,4aR,6aS,6bR,8aS,12aS,12bR,14bS)-2-cyano-4,6a,6b, 11,11,14b-hexamethyl-8a-(3-methyl-1,2,4-oxadiazol-5-yl)-3,13-dioxo-3,4,4a,5,6,6a,6b,7,8,8a,9,10,11,12,12a,12b,13,14b-octadecahydropicen-4-yl)methyl acetate] | 13 | 101 | 366 | 115
Cc1nnc([C@]23CCC(C)(C)C[C@H]2[C@H]2C(=O)C=C4[C@@]5(C)C=C(C#N)C(=O)C(C)(C)[C@@H]5CC[C@@]4(C)[C@]2(C)CC3)o1 [Comparison Compound #8, reference compound] | 32 | 2 | 15 | 222
